The text below walks through data of paper PMC7812727, “Neuropilin 1 and Neuropilin 2 gene invalidation or pharmacological inhibition reveals their relevance for the treatment of metastatic renal cell carcinoma” (Journal of Experimental & Clinical Cancer Research : CR, 2021).

One experiment concerns the target T1, NRP2 (Neuropilin 2) (Homo sapiens, UniProt O60462).
T1 construct: recombinant human NRP2
T1 sequence (O60462 21-931): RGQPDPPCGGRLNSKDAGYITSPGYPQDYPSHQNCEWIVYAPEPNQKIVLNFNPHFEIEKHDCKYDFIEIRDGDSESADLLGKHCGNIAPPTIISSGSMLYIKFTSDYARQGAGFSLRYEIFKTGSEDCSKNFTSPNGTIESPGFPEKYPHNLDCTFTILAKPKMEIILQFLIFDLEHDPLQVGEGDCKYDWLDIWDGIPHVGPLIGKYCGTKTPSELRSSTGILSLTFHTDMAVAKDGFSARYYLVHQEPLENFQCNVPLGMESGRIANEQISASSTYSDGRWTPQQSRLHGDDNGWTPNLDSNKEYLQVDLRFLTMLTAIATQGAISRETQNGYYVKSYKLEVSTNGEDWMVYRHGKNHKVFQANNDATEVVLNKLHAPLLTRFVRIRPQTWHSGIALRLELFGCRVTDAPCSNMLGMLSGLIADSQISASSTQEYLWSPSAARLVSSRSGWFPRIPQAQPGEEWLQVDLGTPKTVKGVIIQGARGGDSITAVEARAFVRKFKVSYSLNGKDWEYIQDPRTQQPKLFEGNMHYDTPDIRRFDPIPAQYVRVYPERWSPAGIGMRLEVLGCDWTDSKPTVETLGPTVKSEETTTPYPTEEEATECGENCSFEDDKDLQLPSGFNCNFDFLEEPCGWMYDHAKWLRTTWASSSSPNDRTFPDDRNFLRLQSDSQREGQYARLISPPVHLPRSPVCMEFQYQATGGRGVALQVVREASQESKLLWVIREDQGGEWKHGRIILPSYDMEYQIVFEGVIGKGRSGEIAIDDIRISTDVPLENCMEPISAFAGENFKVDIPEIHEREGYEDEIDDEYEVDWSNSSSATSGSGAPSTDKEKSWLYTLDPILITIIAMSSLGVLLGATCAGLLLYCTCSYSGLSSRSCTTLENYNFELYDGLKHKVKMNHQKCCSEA
The experiment can be described thus: plate-based competitive binding assay: displacement of biotinylated VEGFA, or of VEGFC, from coated recombinant human NRP2 (chemiluminescence). In kind it is biochemical. The source says: plate-based competitive binding assay: displacement of biotinylated VEGFA, or of VEGFC, from coated recombinant human NRP2 (chemiluminescence) on NRP2 (Neuropilin 2) | NRPa-308 inhibited VEGFA/NRP1 and VEGFA/NRP2 binding in a dose-dependent manner

The target in a further experiment is T2, NRP1 (Neuropilin 1) (Homo sapiens, UniProt O14786).
T2 construct: recombinant human NRP1
Kind of experiment: plate-based competitive binding assay: displacement of biotinylated VEGFA from coated recombinant human NRP1 (chemiluminescence). In kind it is biochemical. From the text: plate-based competitive binding assay: displacement of biotinylated VEGFA from coated recombinant human NRP1 (chemiluminescence) on NRP1 (Neuropilin 1) | NRPa-308 inhibited VEGFA/NRP1 and VEGFA/NRP2 binding in a dose-dependent manner

T2 sequence (O14786 22-923): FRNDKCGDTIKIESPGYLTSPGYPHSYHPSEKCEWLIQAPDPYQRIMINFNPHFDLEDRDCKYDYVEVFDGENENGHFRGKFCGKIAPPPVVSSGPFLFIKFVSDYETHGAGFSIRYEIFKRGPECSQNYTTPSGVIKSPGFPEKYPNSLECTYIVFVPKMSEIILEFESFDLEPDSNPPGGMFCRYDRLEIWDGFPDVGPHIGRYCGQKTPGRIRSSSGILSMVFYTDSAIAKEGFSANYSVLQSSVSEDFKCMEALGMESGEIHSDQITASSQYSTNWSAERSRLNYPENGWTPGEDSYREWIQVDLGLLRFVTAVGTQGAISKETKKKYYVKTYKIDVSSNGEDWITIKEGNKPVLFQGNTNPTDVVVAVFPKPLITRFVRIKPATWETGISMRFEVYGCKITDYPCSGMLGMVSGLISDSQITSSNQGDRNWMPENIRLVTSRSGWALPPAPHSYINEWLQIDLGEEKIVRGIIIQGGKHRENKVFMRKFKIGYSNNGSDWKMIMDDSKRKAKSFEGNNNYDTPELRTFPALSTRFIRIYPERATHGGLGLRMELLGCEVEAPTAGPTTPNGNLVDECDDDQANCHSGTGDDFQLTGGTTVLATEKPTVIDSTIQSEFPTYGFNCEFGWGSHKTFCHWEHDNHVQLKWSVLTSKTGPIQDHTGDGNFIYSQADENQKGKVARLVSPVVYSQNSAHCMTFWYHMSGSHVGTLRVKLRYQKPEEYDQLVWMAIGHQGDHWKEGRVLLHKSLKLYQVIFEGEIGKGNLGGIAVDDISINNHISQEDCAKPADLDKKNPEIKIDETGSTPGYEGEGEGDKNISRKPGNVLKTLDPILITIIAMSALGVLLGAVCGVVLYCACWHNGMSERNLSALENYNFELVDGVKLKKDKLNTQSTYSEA

As for `CCOc1ccccc1NC(=O)c1ccc(C)c(S(=O)(=O)Nc2ccc(C)cc2)c1` [NRPa-308], the “% maximal inhibition” value on NRP2 (Neuropilin 2) and at NRP1 (Neuropilin 1) was ~ 40 % maximal inhibition in each case.
